Laboratory results from patent US4032544A, “3-Cyano-4-hydroxy coumarin derivatives” (Beecham Group Limited, priority 1974, dated 1977).

System: PCA response
Test: rat Passive Cutaneous Anaphylaxis Test (PCA test)
Format: in vivo, rat (male Wistar)
Conditions: sc, subcutaneous, sodium salt
Protocol: The compounds prepared in the preceding examples were tested in the rat Passive Cutaneous Anaphylaxis Test (PCA test), described below. They were administered as their sodium salts either in pH 7.2 phosphate buffer (for soluble salts) or as a suspension in 1% methyl cellulose (for insoluble salts).
Male Wistar rats of 250-300 g, were injected intraperitoneally with 0.5 ml. of Bordatella pertussis vaccine (containing 4× 10^10 dead organism per ml) and subcutaneously with 0.5 ml. of an emulsion of 100 mg. of ovalbumin in 2 ml. of saline and 3 ml. of incomplete Freunds' adjuvant. Rats were bled by cardiac puncture on day 18, the blood was pooled and separated and serum stored at -20° and thawed only once before use.
0.1 ml. of each of six twofold serial dilutions of the serum in 0.9% saline were injected intradermally into separate sites on the shaved dorsal surface of 250-350 g. Male Wistar rats. 72 hours later the animals were challenged by i.v. injection of 0.3 ml. of 1% ovalbumin mixed with 0.1 ml. of a 5% solution of pontamine sky blue dye both in isotonic saline buffered with pH 7.2 Sorenson buffer (P.B.S.). The rats were killed after 20 minutes and the diameter of the blue wheals at the antibody injection sites were measured. The starting dilution of the serum was adjusted so that there was no response, after challenge, at the site of injection of the highest dilution and a maximum response at the two or three lowest dilutions.
Amounts of the compounds were administered to rats by subcutaneous injection, into the nucal region, of a solution of the compound in P.B.S. or as a suspension in 1% methyl cellulose, each amount a test group of six animals at a specified time prior to intravenous challenge with ovalbumin.
% Inhibition of P.C.A.= 100 (1 -a/b)
For those compounds having insoluble sodium salts, the salts were isolated by reaction of the free cyano compound with 2.5N sodium hydroxide and the filtered sodium salt washed free of alkali with water. The dried salts were then administered as a suspension in 1% methyl cellulose.

[1] = 0 h, 0 mins. prior to challenge
[2] = 0.5 h, 30 mins. prior to challenge
[3] = 10 min, 10 mins. prior to challenge
[4] = 1 h, 60 mins. prior to challenge

Compound	inhibition in vivo at 25 mg/kg [1]	inhibition in vivo at 100 mg/kg [1]	inhibition in vivo at 25 mg/kg [2]	inhibition in vivo at 100 mg/kg [2]	inhibition in vivo at 5 mg/kg [3]	inhibition in vivo at 10 mg/kg [3]	inhibition in vivo at 20 mg/kg [3]	other results
N#CC1C(=O)c2ccccc2C1=O [Example 1, 2-Cyano indan-1,3-dione]	43%	64%	8%	16%				
Cc1ccc2c(c1)C(=O)C(C#N)C2=O (stereo not drawn) [Example 2, 2-Cyano-5-methyl indan-1,3-dione]	45%	76%	15%	35%				
Cc1cc2c(cc1C)C(=O)C(C#N)C2=O [Example 3, 2-Cyano-5,6-dimethyl indan-1,3-dione]					56%	77%	92%	inhibition in vivo at 2.5 mg/kg [3]: 46%
Cc1cccc2c1C(=O)C(C#N)C2=O (stereo not drawn) [Example 4, 2-Cyano-4-methyl indan-1,3-dione]					21%	25%	75%	inhibition in vivo at 40 mg/kg [3]: 83%
COc1cccc2c1C(=O)C(C#N)C2=O (stereo not drawn) [Example 5, 2-Cyano-4-methoxy indan-1,3-dione]					28%	16%	57%	inhibition in vivo at 40 mg/kg [3]: 81%
N#CC1C(=O)c2cc3ccccc3cc2C1=O [Example 6, 5,6-Benzo-2-cyano indan-1,3-dione]			27%	30%				inhibition in vivo at 25 mg/kg [3]: 88%; inhibition in vivo at 100 mg/kg [3]: 70%
N#CC1C(=O)c2ccc(Cl)cc2C1=O (stereo not drawn) [Example 7, 5-Chloro-2-cyano indan-1,3-dione]			15%			33%		inhibition in vivo at 25 mg/kg [3]: 76%; inhibition in vivo at 10 mg/kg [2]: 21%
CCc1cc2c(cc1CC)C(=O)C(C#N)C2=O [Example 8, 2-Cyano-5,6-diethyl indan-1,3-dione]					74%	90%	78%	inhibition in vivo at 40 mg/kg [3]: 64%
N#Cc1c(O)c2ccccc2oc1=O [Example 9, 3-Cyano-4-hydroxycoumarin]	64%	87%	30%	40%				
CCc1cc2c(O)c(C#N)c(=O)oc2cc1C [Example 10, 3-Cyano-6-ethyl-4-hydroxy-7-methyl coumarin]			17%			71%		inhibition in vivo at 25 mg/kg [3]: 67%; inhibition in vivo at 10 mg/kg [2]: 24%
Cc1cc2oc(=O)c(C#N)c(O)c2cc1C [Example 11, 3-Cyano-6,7-dimethyl-4-hydroxycoumarin monohydrate]	51%	72%	16%	11%				
CCc1cc2oc(=O)c(C#N)c(O)c2cc1CC [Example 12, 3-Cyano-6,7-diethyl-4-hydroxy coumarin]					72%	68%	93%	inhibition in vivo at 2.5 mg/kg [3]: 64%
Cc1ccc2oc(=O)c(C#N)c(O)c2c1 [Example 13, 3-Cyano-4-hydroxy-6-methyl coumarin]	14%	40%	21%	22%				
Cc1ccc2c(O)c(C#N)c(=O)oc2c1 [Example 14, 3-Cyano-4-hydroxy-7-methyl coumarin]	45%	74%	14%	18%				
CCc1ccc2c(O)c(C#N)c(=O)oc2c1 [Example 15, 3-Cyano-7-ethyl-4-hydroxy coumarin]	34%	64%	27%	17%				
CCOc1ccc2c(O)c(C#N)c(=O)oc2c1 [Example 16, 3-Cyano-7-ethyloxy-4-hydroxy coumarin monohydrate]					59%	71%	86%	inhibition in vivo at 40 mg/kg [3]: 73%
N#Cc1c(O)c2cc3ccccc3cc2oc1=O [Example 17, 3-Cyano-4-hydroxy-2-oxo-2H-naphtho[2,3-b] pyran]	9%	15%						inhibition in vivo at 25 mg/kg [4]: 23%; inhibition in vivo at 100 mg/kg [4]: 18%
N#Cc1c(O)c2cc3c(cc2oc1=O)CCCC3 [Example 18, 3-Cyano-4-hydroxy-2-oxo-6,7,8,9-tetrahydro-2H-naphtho [2,3-b] pyran]								inhibition in vivo at 1 mg/kg (10 min, 1 mg/kg, 10 mins. prior to challenge): 2%; inhibition in vivo at 2 mg/kg (10 min, 2 mg/kg, 10 mins. prior to challenge): 22%; inhibition in vivo at 4 mg/kg (10 min, 4 mg/kg, 10 mins. prior to challenge): 52%; inhibition in vivo at 8 mg/kg (10 min, 8 mg/kg, 10 mins. prior to challenge): 67%
Cc1cccc2c(O)c(C#N)c(=O)oc12 [Example 19, 3-Cyano-4-hydroxy-8-methylcoumarin monohydrate]	48%	67%	23%	35%				
COc1ccc2oc(=O)c(C#N)c(O)c2c1 [Example 20, 3-Cyano-4-hydroxy-6-methyloxycoumarin]	54%	72%	29%	36%				
Cc1ccc2c(O)c(C#N)c(=O)oc2c1C [Example 21, 3-Cyano-7,8-dimethyl-4-hydroxycoumarin monohydrate]					39%	65%	97%	inhibition in vivo at 2.5 mg/kg [3]: 20%
